The record followed here is ChEMBL document CHEMBL1148072, “Ellagitannins and complex tannins from Quercus petraea bark” (J Nat Prod, 1994).

The subject of one assay is Blood. Briefly: Astringency in human blood by heme-analysis relative to tannin. It is filed as functional.
As to `O=C1OCC2OC(=O)c3cc(O)c(O)c(O)c3-c3c(O)c(O)c(O)c4c3C(=O)OC(C2OC(=O)c2cc(O)c(O)c(O)c2-c2c1cc(O)c(O)c2O)C1OC(=O)c2c-4c(O)c(O)c(O)c2C1O` (stereo unspecified) [VESCALAGIN], the Activity is 0.24.
As for `O=C1OC[C@H]2OC(=O)c3cc(O)c(O)c(O)c3-c3c(O)c(O)c(O)c4c3C(=O)O[C@H]([C@@H]3OC(=O)c5c-4c(O)c(O)c(O)c5[C@@H]3c3c(O)cc(O)c4c3O[C@H](c3cc(O)c(O)c(O)c3)[C@@H](O)C4)[C@H]2OC(=O)c2cc(O)c(O)c(O)c2-c2c1cc(O)c(O)c2O` [EUGENIGRANDIN A], the Activity is recorded as 0.46.
Still for that read-out and setting: the result for `O=C1OC[C@H]2OC(=O)c3cc(O)c(O)c(O)c3-c3c(O)c(O)c(O)c4c3C(=O)O[C@H]([C@@H]3OC(=O)c5c-4c(O)c(O)c(O)c5[C@@H]3c3c(O)cc(O)c4c3O[C@H](c3ccc(O)c(O)c3)[C@@H](O)C4)[C@H]2OC(=O)c2cc(O)c(O)c(O)c2-c2c1cc(O)c(O)c2O` [ACUTISSIMIN A] reads 0.28; that for `O=C1OC[C@H]2OC(=O)c3cc(O)c(O)c(O)c3-c3c(O)c(O)c(O)c4c3C(=O)O[C@H]([C@@H]3OC(=O)c5c-4c(O)c(O)c(O)c5[C@@H]3c3c(O)cc4c(c3O)C[C@H](O)[C@@H](c3cc(O)c(O)c(O)c3)O4)[C@H]2OC(=O)c2cc(O)c(O)c(O)c2-c2c1cc(O)c(O)c2O` [GUAJAVIN B], 0.44; that for `O=C1OC[C@H]2OC(O)[C@@H]3OC(=O)c4cc(O)c(O)c(O)c4-c4c(cc(O)c(O)c4O)C(=O)O[C@H]3[C@@H]2OC(=O)c2cc(O)c(O)c(O)c2-c2c1cc(O)c(O)c2O` (stereo partly specified) [PEDUNCULAGIN], 0.2.

A further assay deals with Caenorhabditis elegans. Kind of assay: Anthelmintic activity against Caenorhabditis elegans. It is filed as functional, organism-based.
The compound `COC(=O)Nc1nc2cc(C(=O)c3ccccc3)ccc2[nH]1` [MEBENDAZOLE] yielded an IC50 of 10 ppm.
